The values that follow come from US20100204203A1, “Chemical Compounds 637: Pyridopyrimidinediones as PDE4 Inhibitors” (priority 2007, published 2010).

recombinant Human Phosphodiesterase B2 (PDE4B2), sequence (Q07343 1-564 isoform Q07343-2): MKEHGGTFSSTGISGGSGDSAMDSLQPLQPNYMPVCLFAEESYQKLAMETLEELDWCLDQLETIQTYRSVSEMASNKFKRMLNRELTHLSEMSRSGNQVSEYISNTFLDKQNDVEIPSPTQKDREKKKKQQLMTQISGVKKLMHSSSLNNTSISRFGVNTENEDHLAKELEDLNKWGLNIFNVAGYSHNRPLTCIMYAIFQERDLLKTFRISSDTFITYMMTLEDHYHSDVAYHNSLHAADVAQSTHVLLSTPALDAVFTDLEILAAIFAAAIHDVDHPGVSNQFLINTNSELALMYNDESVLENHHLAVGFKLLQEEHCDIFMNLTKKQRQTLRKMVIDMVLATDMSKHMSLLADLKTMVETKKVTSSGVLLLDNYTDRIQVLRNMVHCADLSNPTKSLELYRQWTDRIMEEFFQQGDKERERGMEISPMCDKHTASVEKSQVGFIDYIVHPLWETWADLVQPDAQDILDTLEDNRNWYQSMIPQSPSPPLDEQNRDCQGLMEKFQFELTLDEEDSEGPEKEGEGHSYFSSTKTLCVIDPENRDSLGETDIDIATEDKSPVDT

In the test the target is recombinant Human Phosphodiesterase B2 (PDE4B2) (Homo sapiens, UniProt Q07343). Description: Human Phosphodiesterase B2 Radiometric Assay (yttrium silicate SPA beads, [3H]cyclic AMP). It is filed as biochemical. Particulars: recombinant human PDE4B2, radiometric SPA assay, 8 nM [3H]cyclic AMP; read-out: PDE4B2 pIC50 (converted). An outline of the steps:
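Read-out is scintillation proximity: yttrium silicate beads (with 18 mM ZnSO4, added to stop the reaction) bind 5′AMP formed from 8 nM [3H]cAMP over 20 min. Beforehand, compound and 0.1 mg/mL enzyme were preincubated 30 min at 30 °C in pH 7.5 HEPES buffer with MgCl2, EGTA and Brij 35; pIC50 values were curve-fitted.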
For the molecule `CN(Cc1ccc(-c2cccc(-n3c(=O)n([C@H]4CC[C@@H](NC(=O)c5cn6c(n5)CCCC6)CC4)c(=O)c4cc(F)cnc43)c2)cc1)C(C)(C)C` [Example 136, N-{cis-4-[1-(4′-{[tert-butyl(methyl)amino]methyl}biphenyl-3-yl)-6-fluoro-2,4-dioxo-1,4-dihydropyrido[2,3-d]pyrimidin-3(2H)-yl]cyclohexyl}-5,6,7,8-tetrahydroimidazo[1,2-a]pyridine-2-carboxamide], the IC50 was 0.0316 nM.
As to `C[C@H](O)CN(C)Cc1cc(O)ccc1-c1cccc(-n2c(=O)n([C@H]3CC[C@@H](NCc4cn5cc(F)ccc5n4)CC3)c(=O)c3cc(F)cnc32)c1` (relative stereo) [Example 318, 6-fluoro-3-(cis-4-{[(6-fluoroimidazo[1,2-a]pyridin-2-yl)methyl]amino}cyclohexyl)-1-(4′-hydroxy-2′-{[[(2S)-2-hydroxypropyl](methyl)amino]methyl}biphenyl-3-yl)pyrido[2,3-d]pyrimidine-2,4(1H,3H)-dione], the IC50 was 2 nM.
With `O=C(N[C@H]1CC[C@@H](n2c(=O)c3cc(F)cnc3n(-c3cccc(-c4ccc(CN5CCCNCC5)cc4)c3)c2=O)CC1)c1cc2ccccc2cn1` [Example 353, N-{cis-4-[1-[4′-(1,4-diazepan-1-ylmethyl)biphenyl-3-yl]-6-fluoro-2,4-dioxo-1,4-dihydropyrido[2,3-d]pyrimidin-3(2H)-yl]cyclohexyl} isoquinoline-3-carboxamide], the IC50 was 0.0316 nM.
`Cc1c(CN[C@H]2CC[C@@H](n3c(=O)c4cc(F)cnc4n(-c4cccc(-c5ccc(O)cc5CN5CCOCC5)c4)c3=O)CC2)nc2ccccn12` [Example 336, 6-fluoro-1-[4′-hydroxy-2′-(morpholin-4-ylmethyl)biphenyl-3-yl]-3-(cis-4-{[(3-methylimidazo[1,2-a]pyridin-2-yl)methyl]amino}cyclohexyl)pyrido[2,3-d]pyrimidine-2,4(1H,3H)-dione]: the IC50 was 0.0316 nM.
As for `O=C(N[C@H]1CC[C@@H](n2c(=O)c3cc(F)cnc3n(-c3cccc(-c4ccc(CN5CCCOCC5)cc4)c3)c2=O)CC1)c1cn2c(n1)CCCC2` [Example 224, N-{cis-4-[6-fluoro-1-[4′-(1,4-oxazepan-4-ylmethyl)biphenyl-3-yl]-2,4-dioxo-1,4-dihydropyrido[2,3-d]pyrimidin-3(2H)-yl]cyclohexyl}-5,6,7,8-tetrahydroimidazo[1,2-a]pyridine-2-carboxamide], the IC50 was 0.01 nM.
As to `Cc1n[nH]cc1C(=O)N[C@H]1CC[C@@H](n2c(=O)c3cc(F)cnc3n(-c3cccc(-c4ccc(CN5CCN(C(C)C)CC5)cc4)c3)c2=O)CC1` [Example 235, N-{cis-4-[6-fluoro-1-{4′-[(4-isopropylpiperazin-1-yl)methyl]biphenyl-3-yl}-2,4-dioxo-1,4-di-hydropyrido[2,3-d]pyrimidin-3(2H)-yl]cyclohexyl}-3-methyl-1H-pyrazole-4-carboxamide], the IC50 is 0.126 nM.
Turning to `O=C(N[C@H]1CC[C@@H](n2c(=O)c3cc(F)cnc3n(-c3cccc(-c4ccc(CN5CCNCC5)cc4O)c3)c2=O)CC1)c1cn2cc(F)ccc2n1` [Example 274, 6-Fluoro-N-{cis-4-[6-fluoro-1-[2′-hydroxy-4′-(piperazin-1-ylmethyl)biphenyl-3-yl]-2,4-dioxo-1,4-dihydropyrido[2,3-d]pyrimidin-3(2H)-yl]cyclohexyl}imidazo[1,2-a]pyridine-2-carboxamide], the IC50 was 0.0631 nM.
`Cc1cc(CN[C@H]2CC[C@@H](n3c(=O)c4cc(F)cnc4n(-c4cccc(-c5ccc(O)cc5CN5CCOCC5)c4)c3=O)CC2)nn1C` [Example 251, 3-(cis-4-{[(1,5-Dimethyl-1H-pyrazol-3-yl)methyl]amino}cyclohexyl)-6-fluoro-1-[4′-hydroxy-2′-(morpholin-4-ylmethyl)biphenyl-3-yl]pyrido[2,3-d]pyrimidine-2,4(1H,3H)-dione]: the IC50 was 0.1 nM.
